A short description of series [1]: Chrom LogP of maytansinoid conjugates. The series is classed as physicochemical.
A short description of series [2]: Ligand charge of maytansinoid conjugates. It is filed as physicochemical.
A further series deals with human SSTR2 (Homo sapiens, UniProt P30874). The experiment in a line: Radioligand-receptor binding assay, [125I] somatostatin, membranes from SSTR2 expressing CHO-K1 cells. The method in brief: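 CHO-K1 SSTR2 membranes incubated 4 h with 0.03 nM [125I] somatostatin and conjugates in a 10-point, 6-fold series from 10 uM. Bound radioligand measured after filtration and washing; IC50 by non-linear least-squares regression.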
Sequence of human SSTR2 (P30874 whole entry): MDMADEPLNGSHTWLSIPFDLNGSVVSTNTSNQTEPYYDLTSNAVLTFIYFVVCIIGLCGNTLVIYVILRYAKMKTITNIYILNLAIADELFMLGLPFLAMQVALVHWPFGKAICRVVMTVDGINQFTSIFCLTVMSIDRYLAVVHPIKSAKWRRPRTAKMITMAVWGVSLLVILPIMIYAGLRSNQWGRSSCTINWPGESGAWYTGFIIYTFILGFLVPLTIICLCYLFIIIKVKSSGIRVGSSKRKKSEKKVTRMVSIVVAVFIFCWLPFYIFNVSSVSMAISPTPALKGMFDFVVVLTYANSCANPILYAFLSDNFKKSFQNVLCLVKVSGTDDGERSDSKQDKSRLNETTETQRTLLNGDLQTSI

For series [3], the system named is NCI-H524 (ATCC) human lung cancer cells. The series is classed as cell-based. The method in brief:
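NCI-H524 cells (5,000/well) exposed to conjugates for 6 hours, washed, then grown a further 66 hours; ten-point threefold dilutions from 20 μM. Proliferation by CellTiter-Glo versus vehicle; IC50 by four-parameter nonlinear regression, measured with and without octreotide competition.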

Series [4] relates to NCI-H69 SCLC (small cell lung cancer) tumor cells. The experiment in a line: H69 tumor PK. The series is classed as in vivo. The method, then: Half-life (t1/2) of maytansinoid conjugates were measured in rat plasma and rat liver microsomes (LM). PK values of maytansinoid conjugates in NCI-H69 SCLC (small cell lung cancer) tumor cells were measured.
A further series concerns human NCI-H69 SCLC. The series can be described thus: H69 xenograft efficacy study, tumor growth inhibition. The series is classed as in vivo, mice. The method, then:
Applicants assessed the activity of maytansinoid conjugates in vivo. In these experiments, the ability of conjugates to affect the growth of human NCI-H69 SCLC was tested. For the in vivo study, 8 week old female NCR nude mice were inoculated subcutaneously into the right flank with 2 million cells in 1:1 RPMI 1640 (Invitrogen, Carlsbad, Calif.)/Matrigel® (BD Biosciences, San Jose, Calif.). Tumor measurements were taken twice weekly, using vernier calipers. Tumor volume was calculated using the formula: V=0.5×width×width×length.
When tumors approached a volume of 200 mm^3, mice were randomized into four groups of ten animals. Mice were treated with vehicle control (10% propylene glycol in water for injection) and maytansinoid conjugates (10% propylene glycol in water for injection). Final tumor volumes were analyzed using with a one-way analysis of variance and Tukey multiple comparison test.

Setting [5] is: read-out: H524 IC50 6 h, 6 hours treatment, further 66 hours incubation.
Setting [6] is: read-out: H524 IC50 with 100 μM octreotide 6 h, with 100 μM octreotide competition, 6 h treatment.

Experimental findings from patent US20190125888A1, “TARGETED CONJUGATES AND PARTICLES AND FORMULATIONS THEREOF” (priority 2015, published 2019) are described below.

Usually chromatographic logP stands for a lipophilicity value derived from retention on a column. Read a high chromatographic logP as higher lipophilicity. Usually Ki stands for a measure of affinity in units of concentration, obtained from inhibition or displacement. Lower therefore signals a stronger hold on the target. A word on the IC50: it is the concentration needed to halve the response being measured.

Read-outs that look alike come from different tables or passages of the source.

In turn, `COc1cc2cc(c1Cl)N(C)C(=O)C[C@H](OC(=O)[C@H](C)N(C)C(=O)CCSSC[C@H](NC(=O)[C@@H]1CSSC[C@H](NC(=O)[C@@H](Cc3ccccc3)NC(=O)NCCC(c3ccccc3)c3ccccc3)C(=O)N[C@@H](Cc3ccc(O)cc3)C(=O)N[C@H](Cc3c[nH]c4ccccc34)C(=O)N[C@@H](CCCCN)C(=O)N[C@@H]([C@@H](C)O)C(=O)N1)C(N)=O)[C@]1(C)O[C@H]1[C@H](C)[C@@H]1C[C@@](O)(NC(=O)O1)[C@H](OC)/C=C/C=C(\C)C2` [Conjugate 41] displayed a chromatographic logP in series [1] of 3.29. Further, the Ligand charge entry in series [2] is reported as “+1”. For the same compound, the affinity on human SSTR2 corresponds to a Ki of 0.5 nM. The IC50 in series [3] (setting [5]) amounted to 41 nM; in series [3] (setting [6]), 97 nM.

In series [1], `COc1cc2cc(c1Cl)N(C)C(=O)C[C@H](OC(=O)[C@H](C)N(C)C(=O)CCSSC[C@H](NC(=O)[C@@H]1CSSC[C@H](NC(=O)[C@@H](Cc3ccccc3)NC(=O)Nc3ccccc3)C(=O)N[C@@H](Cc3ccc(O)cc3)C(=O)N[C@H](Cc3c[nH]c4ccccc34)C(=O)N[C@@H](CCCCN)C(=O)N[C@@H]([C@@H](C)O)C(=O)N1)C(N)=O)[C@]1(C)O[C@H]1[C@H](C)[C@@H]1C[C@@](O)(NC(=O)O1)[C@H](OC)/C=C/C=C(\C)C2` [Conjugate 42] gave a chromatographic logP of 2.87. Besides, the Ligand charge result in series [2] is “+1”. Further, at human SSTR2, the inhibition constant Ki was found to be 0.042 nM. The IC50 in series [3] (setting [5]) was determined as 1.7 nM; in series [3] (setting [6]) it was 115 nM.

As to `COc1cc2cc(c1Cl)N(C)C(=O)C[C@H](OC(=O)[C@H](C)N(C)C(=O)CCSSC(C)(C)[C@H](NC(=O)[C@@H]1CSSC[C@H](NC(=O)[C@@H](Cc3ccccc3)NS(C)(=O)=O)C(=O)N[C@@H](Cc3ccc(O)cc3)C(=O)N[C@H](Cc3c[nH]c4ccccc34)C(=O)N[C@@H](CCCCN)C(=O)N[C@@H]([C@@H](C)O)C(=O)N1)C(N)=O)[C@]1(C)O[C@H]1[C@H](C)[C@@H]1C[C@@](O)(NC(=O)O1)[C@H](OC)/C=C/C=C(\C)C2` [Conjugate 10], in series [1], the chromatographic logP came to 2.66. Moreover, the Ligand charge entry in series [2] is “+1”. This compound also registered a Ki on human SSTR2 of 0.035 nM. Also, the IC50 came out at 3.3 nM in series [3] (setting [5]) and 246 nM in series [3] (setting [6]). Moreover, the “H69 tumor PK normalized- uM/umol/kg at 1 mpk in 10% PG” value in series [4] worked out at 0.546 uM/umol/kg. In addition, the “TGI % Day 11” value in the series with human NCI-H69 SCLC (0.7 mg/kg once weekly for two doses, Day 11) is given as 48%. Moreover, in the series on human NCI-H69 SCLC (0.7 mg/kg once weekly for two doses, Day 14), the “TGI % Day 14” value turned out to be 59%. In addition, the “TGI % Day 18” value in the series with human NCI-H69 SCLC (0.7 mg/kg once weekly for two doses, Day 18) was 54%. For the same compound, in the series on human NCI-H69 SCLC (0.7 mg/kg once weekly for two doses, Day 21), the “TGI % Day 21” value amounted to 53%. Moreover, the “TGI % Day 25” value in the series on human NCI-H69 SCLC (0.7 mg/kg once weekly for two doses, Day 25) is 42%. For the same compound, in the series with human NCI-H69 SCLC (1.5 mg/kg once weekly for two doses, Day 13), the “TGI % Day 13” value is recorded as 92.2%. The “TGI % Day 17” value in the series with human NCI-H69 SCLC (1.5 mg/kg once weekly for two doses, Day 17) is reported as 95.6%. Besides, in the series with human NCI-H69 SCLC (1.5 mg/kg once weekly for two doses, Day 20), the “TGI % Day 20” value is on record as 97.8%. Besides, in the series with human NCI-H69 SCLC (1.5 mg/kg once weekly for two doses, Day 24), the “TGI % Day 24” value was found to be 99.5%. Also, the “TGI % Day 30” value in the series on human NCI-H69 SCLC (1.5 mg/kg once weekly for two doses, Day 30) is reported as 99.6%. For the same compound, the “TGI % at day 22” value in the series with human NCI-H69 SCLC (Dose 0.60 × 2 mg/kg, total dose 1.20 mg/kg) came out at 53%; with human NCI-H69 SCLC (Dose 1.54 × 2 mg/kg, total dose 3.08 mg/kg), 98%.

Turning to `COc1cc2cc(c1Cl)N(C)C(=O)C[C@H](OC(=O)[C@H](C)N(C)C(=O)CCSSC(C)(C)[C@H](NC(=O)[C@@H]1CSSC[C@H](NC(=O)[C@@H](Cc3ccccc3)NCc3ccccc3)C(=O)N[C@@H](Cc3ccc(O)cc3)C(=O)N[C@H](Cc3c[nH]c4ccccc34)C(=O)N[C@@H](CCCCN)C(=O)N[C@@H]([C@@H](C)O)C(=O)N1)C(N)=O)[C@]1(C)O[C@H]1[C@H](C)[C@@H]1C[C@@](O)(NC(=O)O1)[C@H](OC)/C=C/C=C(\C)C2` [Conjugate 12], the chromatographic logP in series [1] stood at 2.57. The Ligand charge entry in series [2] is listed as “+2”. The compound further returned a Ki at human SSTR2 of 0.02 nM. In addition, the IC50 in series [3] (setting [5]) stood at 19.5 nM; in series [3] (setting [6]), 331 nM.

In series [1], `COc1cc2cc(c1Cl)N(C)C(=O)C[C@H](OC(=O)[C@H](C)N(C)C(=O)CCSSC(C)(C)[C@H](NC(=O)[C@@H]1CSSC[C@H](NC(=O)[C@@H](Cc3ccccc3)NC(=O)Nc3ccccc3)C(=O)N[C@@H](Cc3ccc(O)cc3)C(=O)N[C@H](Cc3c[nH]c4ccccc34)C(=O)N[C@@H](CCCCN)C(=O)N[C@@H]([C@@H](C)O)C(=O)N1)C(N)=O)[C@]1(C)O[C@H]1[C@H](C)[C@@H]1C[C@@](O)(NC(=O)O1)[C@H](OC)/C=C/C=C(\C)C2` [Conjugate 11] registered a chromatographic logP of 2.98. Moreover, the Ligand charge result in series [2] was “+1”. The compound also gave a Ki on human SSTR2 of 0.034 nM. Also, the figures for the IC50 in series [3] (setting [5]) and in series [3] (setting [6]) were 6.1 nM and 232 nM, respectively.

In turn, `COc1cc2cc(c1Cl)N(C)C(=O)C[C@H](OC(=O)[C@H](C)N(C)C(=O)CCSSC[C@H](NC(=O)[C@@H]1CSSC[C@H](NC(=O)[C@@H](Cc3ccccc3)NC(=O)NC3CCCCC3)C(=O)N[C@@H](Cc3ccc(O)cc3)C(=O)N[C@H](Cc3c[nH]c4ccccc34)C(=O)N[C@@H](CCCCN)C(=O)N[C@@H]([C@@H](C)O)C(=O)N1)C(N)=O)[C@]1(C)O[C@H]1[C@H](C)[C@@H]1C[C@@](O)(NC(=O)O1)[C@H](OC)/C=C/C=C(\C)C2` [Conjugate 25] returned a chromatographic logP in series [1] of 2.94. Besides, the Ligand charge entry in series [2] was “+1”. Further, the affinity at human SSTR2 corresponds to a Ki of 0.11 nM. Besides, the IC50 in series [3] (setting [5]) is 32 nM; in series [3] (setting [6]), 123 nM.

`CCNC(=O)N[C@H](Cc1ccccc1)C(=O)N[C@H]1CSSC[C@@H](C(=O)N[C@H](C(N)=O)C(C)(C)SSCCC(=O)N(C)[C@@H](C)C(=O)O[C@H]2CC(=O)N(C)c3cc(cc(OC)c3Cl)C/C(C)=C/C=C/[C@@H](OC)[C@@]3(O)C[C@H](OC(=O)N3)[C@@H](C)[C@@H]3O[C@@]23C)NC(=O)[C@H]([C@@H](C)O)NC(=O)[C@H](CCCCN)NC(=O)[C@@H](Cc2c[nH]c3ccccc23)NC(=O)[C@H](Cc2ccc(O)cc2)NC1=O` [Conjugate 13] came in with a chromatographic logP in series [1] of 2.67. In addition, in series [2], the Ligand charge result is “+1”. At human SSTR2, the Ki was determined as 0.018 nM. Moreover, the IC50 was 6.5 nM in series [3] (setting [5]) and 340 nM in series [3] (setting [6]).

Consider `COc1cc2cc(c1Cl)N(C)C(=O)C[C@H](OC(=O)[C@H](C)N(C)C(=O)CCSSC[C@H](NC(=O)[C@@H]1CSSC[C@H](NC(=O)[C@@H](Cc3ccccc3)NC(=O)NCc3ccc(C(F)(F)F)cc3)C(=O)N[C@@H](Cc3ccc(O)cc3)C(=O)N[C@H](Cc3c[nH]c4ccccc34)C(=O)N[C@@H](CCCCN)C(=O)N[C@@H]([C@@H](C)O)C(=O)N1)C(N)=O)[C@]1(C)O[C@H]1[C@H](C)[C@@H]1C[C@@](O)(NC(=O)O1)[C@H](OC)/C=C/C=C(\C)C2` [Conjugate 37], for which the chromatographic logP in series [1] is 3.07. Moreover, the Ligand charge result in series [2] is recorded as “+1”. On human SSTR2, this compound returned a Ki of 0.16 nM. Besides, the IC50 in series [3] (setting [5]) amounted to 3.7 nM; in series [3] (setting [6]), 93 nM.

`CCNC(=O)N[C@H](Cc1ccccc1)C(=O)N[C@H]1CSSC[C@@H](C(=O)N[C@@H](CSSCCC(=O)N(C)[C@@H](C)C(=O)O[C@H]2CC(=O)N(C)c3cc(cc(OC)c3Cl)C/C(C)=C/C=C/[C@@H](OC)[C@@]3(O)C[C@H](OC(=O)N3)[C@@H](C)[C@@H]3O[C@@]23C)C(=O)NCC)NC(=O)[C@H]([C@@H](C)O)NC(=O)[C@H](CCCCN)NC(=O)[C@@H](Cc2c[nH]c3ccccc23)NC(=O)[C@H](Cc2ccc(O)cc2)NC1=O` [Conjugate 30]: the chromatographic logP in series [1] amounted to 2.79. Further, the Ligand charge result in series [2] is “+1”. On human SSTR2, this compound gave a Ki of 0.071 nM. The IC50 worked out at 2.4 nM in series [3] (setting [5]) and 27 nM in series [3] (setting [6]).
